Experiments:
[1] = 12-month toxicity study, whole blood exposure; type: in vivo, cynomolgus monkeys; settings: Days 1 and 28; 30, 100 and 300 mg/kg/day oral gavage
Procedure: All the animals were healthy and within normal weights for their age at the start of the study. The dose levels were 0, 30/5, 100/30, and 300 mg/kg/day and administered at a dose volume of 3 mL per dose. The control group received the vehicle in the same manner as the treated groups. Just prior to administration, the test article for each animal was added to the syringe containing the vehicle for each animal and vortexed until thoroughly mixed to achieved the desired concentrations of 30, 100, and 300 mg/mL through Day 42 (Week 6). During administration, the syringe containing the test article preparation for each animal was pushed through the gavage tube. The 1 mL vehicle rinse was then added to the dosing syringe and administered. After administration of both volumes, a 5 mL flush of the vehicle was used to rinse the gavage tube and ensure that the entire amount of the test article was administered to the animal. […] Therefore, dose levels were adjusted so that different blood exposures could be examined. During Week 7 dosing for all animals was stopped for four days (Days 43 to 46). The initial dose levels of 30 and 100 mg/kg/day were reduced to 5 and 30 mg/kg/day, respectively, and dosing was resumed on Day 47 through Day 353. Individual doses were based on the most recent body weights.

[2] = Phase 2b/3 trial, weight over 52 weeks; type: in vivo, human
Procedure: Weight measurements were included in the study as a basic clinical parameter. […] Screening estimated GFR was calculated as the mean of two estimated GFR results (differing no more than 25%) collected at least 5 days apart within a 3-week period. […] Exclusion criteria included type 1 diabetes, non-diabetic kidney disease, hemoglobin A1c>10%, QTc […] interval >450 milliseconds, evidence of hepatic dysfunction, and recent cardiovascular disease. […] Study drug was taken orally once daily in the morning one hour prior to food intake. Dose titration occurred as follows: (1) placebo; (2) 25 mg; (3) 25 mg, increased to 75 mg after 4 weeks; and (4) 25 mg, increased to 75 mg after 4 weeks, further increased to 150 mg after an additional 4 weeks. Randomization was stratified by CKD stage (3b versus 4), urinary albumin to creatinine ratio (ACR; ≤ versus >300 mg/g), and glucose control (hemoglobin A1c< versus ≥7%). An independent Data Safety Monitoring Board monitored patient safety. […] The double-blinded structure of the study was maintained throughout the 52-week period. […] Treatment was discontinued in all groups at week 52 (including the placebo group), and final clinical and laboratory measurements were taken at week 56.

Nrf2 = Nrf2 activity in blood cells in clinical trials; type: in vivo, human; settings: at therapeutic doses
Excerpt: One AIM, bardoxolone methyl (BARD), is in advanced clinical trials for the treatment of chronic kidney disease.

[3] = 75 mg, Week 56 (treatment discontinued at week 52)
[4] = by week 52, patients treated with bardoxolone methyl

Compound: COC(=O)[C@]12CCC(C)(C)C[C@H]1[C@H]1C(=O)C=C3[C@@]4(C)C=C(C#N)C(=O)C(C)(C)[C@@H]4CC[C@@]3(C)[C@]1(C)CC2 [bardoxolone methyl]
- exposure in whole blood samples [1]: no significant differences in exposure across the three dose levels
- Change in weight from baseline to Week 52: Decrease >5 kg, patients ([2]; 25 mg, N = 48): 35 (73) n (%)
- Change in weight from baseline to Week 52: Decrease >10 kg, patients ([2]; 25 mg, N = 48): 16 (33) n (%)
- Change in weight from baseline to Week 52: Decrease >15 kg, patients ([2]; 25 mg, N = 48): 9 (19) n (%)
- Change in weight from baseline to Week 52: Decrease within 5 kg, patients ([2]; 25 mg, N = 48): 8 (17) n (%)
- Change in weight from baseline to Week 52: Increase >5 kg, patients ([2]; 25 mg, N = 48): 0 n (%)
- Change in weight from baseline to Week 52: Increase within 5 kg, patients ([2]; 25 mg, N = 48): 5 (10) n (%)
- Change from baseline weight, Mean ([2]; 25 mg, Week 4): -1.4 kg
- Change from baseline weight, Mean ([2]; 25 mg, Week 8): -2.7 kg
- Change from baseline weight, Mean ([2]; 25 mg, Week 12): -3.9 kg
- Change from baseline weight, Mean ([2]; 25 mg, Week 16): -4.3 kg
- Change from baseline weight, Mean ([2]; 25 mg, Week 20): -5.0 kg
- Change from baseline weight, Mean ([2]; 25 mg, Week 24): -5.9 kg
- Change from baseline weight, Mean ([2]; 25 mg, Week 28): -6.3 kg
- Change from baseline weight, Mean ([2]; 25 mg, Week 32): -6.7 kg
- Change from baseline weight, Mean ([2]; 25 mg, Week 36): -7.4 kg
- Change from baseline weight, Mean ([2]; 25 mg, Week 40): -7.9 kg
- Change from baseline weight, Mean ([2]; 25 mg, Week 44): -8.2 kg
- Change from baseline weight, Mean ([2]; 25 mg, Week 48): -8.8 kg
- Change from baseline weight, Mean ([2]; 25 mg, Week 52): -9.3 kg
- Change from baseline weight, Mean ([2]; 25 mg, Week 56 (treatment discontinued at week 52)): -7.7 kg
- Change in weight from baseline to Week 52: Decrease >5 kg, patients ([2]; 75 mg, N = 48): 32 (67) n (%)
- Change in weight from baseline to Week 52: Decrease >10 kg, patients ([2]; 75 mg, N = 48): 14 (29) n (%)
- Change in weight from baseline to Week 52: Decrease >15 kg, patients ([2]; 75 mg, N = 48): 4 (8) n (%)
- Change in weight from baseline to Week 52: Decrease within 5 kg, patients ([2]; 75 mg, N = 48): 12 (25) n (%)
- Change in weight from baseline to Week 52: Increase >5 kg, patients ([2]; 75 mg, N = 48): 0 n (%)
- Change in weight from baseline to Week 52: Increase within 5 kg, patients ([2]; 75 mg, N = 48): 4 (8) n (%)
- Change from baseline weight, Mean ([2]; 75 mg, Week 4): -1.4 kg
- Change from baseline weight, Mean ([2]; 75 mg, Week 8): -2.6 kg
- Change from baseline weight, Mean ([2]; 75 mg, Week 12): -3.4 kg
- Change from baseline weight, Mean ([2]; 75 mg, Week 16): -4.1 kg
- Weight, Mean ([2]; 75 mg, Week 16): 91.7 kg
- Change from baseline weight, Mean ([2]; 75 mg, Week 20): -4.4 kg
- Weight, Mean ([2]; 75 mg, Week 20): 92.0 kg
- Change from baseline weight, Mean ([2]; 75 mg, Week 24): -4.7 kg
- Weight, Mean ([2]; 75 mg, Week 24): 91.7 kg
- Change from baseline weight, Mean ([2]; 75 mg, Week 28): -5.1 kg
- Weight, Mean ([2]; 75 mg, Week 28): 91.8 kg
- Change from baseline weight, Mean ([2]; 75 mg, Week 32): -6.2 kg
- Weight, Mean ([2]; 75 mg, Week 32): 91.6 kg
- Change from baseline weight, Mean ([2]; 75 mg, Week 36): -6.1 kg
- Weight, Mean ([2]; 75 mg, Week 36): 91.0 kg
- Change from baseline weight, Mean ([2]; 75 mg, Week 40): -6.5 kg
- Weight, Mean ([2]; 75 mg, Week 40): 90.6 kg
- Change from baseline weight, Mean ([2]; 75 mg, Week 44): -6.9 kg
- Weight, Mean ([2]; 75 mg, Week 44): 90.8 kg
- Change from baseline weight, Mean ([2]; 75 mg, Week 48): -7.4 kg
- Weight, Mean ([2]; 75 mg, Week 48): 90.4 kg
- Change from baseline weight, Mean ([2]; 75 mg, Week 52): -7.7 kg
- Weight, Mean ([2]; 75 mg, Week 52): 90.0 kg
- Change from baseline weight, Mean [2, 3]: -7.6 kg
- Weight, Mean [2, 3]: 90.7 kg
- Change in weight from baseline to Week 52: Decrease >5 kg, patients ([2]; 150 mg, N = 45): 34 (76) n (%)
- Change in weight from baseline to Week 52: Decrease >10 kg, patients ([2]; 150 mg, N = 45): 22 (49) n (%)
- Change in weight from baseline to Week 52: Decrease >15 kg, patients ([2]; 150 mg, N = 45): 12 (27) n (%)
- Change in weight from baseline to Week 52: Decrease within 5 kg, patients ([2]; 150 mg, N = 45): 8 (18) n (%)
- Change in weight from baseline to Week 52: Increase >5 kg, patients ([2]; 150 mg, N = 45): 1 (2) n (%)
- Change in weight from baseline to Week 52: Increase within 5 kg, patients ([2]; 150 mg, N = 45): 2 (4) n (%)
- Change from baseline weight, Mean ([2]; 150 mg, Week 4): -1.3 kg
- Change from baseline weight, Mean ([2]; 150 mg, Week 8): -2.1 kg
- Change from baseline weight, Mean ([2]; 150 mg, Week 12): -3.3 kg
- Change from baseline weight, Mean ([2]; 150 mg, Week 16): -3.9 kg
- Change from baseline weight, Mean ([2]; 150 mg, Week 20): -5.0 kg
- Change from baseline weight, Mean ([2]; 150 mg, Week 24): -5.8 kg
- Change from baseline weight, Mean ([2]; 150 mg, Week 28): -6.7 kg
- Change from baseline weight, Mean ([2]; 150 mg, Week 32): -7.2 kg
- Change from baseline weight, Mean ([2]; 150 mg, Week 36): -8.1 kg
- Change from baseline weight, Mean ([2]; 150 mg, Week 40): -8.7 kg
- Change from baseline weight, Mean ([2]; 150 mg, Week 44): -9.2 kg
- Change from baseline weight, Mean ([2]; 150 mg, Week 48): -10 kg
- Change from baseline weight, Mean ([2]; 150 mg, Week 52): -10 kg
- Change from baseline weight, Mean ([2]; 150 mg, Week 56 (treatment discontinued at week 52)): -9.6 kg
- fraction of patients who had lost more than 5 kg [2, 4]: at least two thirds
- fraction of patients who had lost more than 10 kg [2, 4]: Approximately one third
- Nrf2 activity in blood cells (Nrf2): induces Nrf2 activity

Source: patent US10105372B2, “Methods of treating obesity using antioxidant inflammation modulators” (REATA PHARMACEUTICALS, INC., priority 2010, dated 2018)
